According to PubChem BioAssay (NCI):
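Values below derive from 48-hour exposures of cells grown in 96-well plates, with endpoints linearly interpolated between the two concentrations bracketing the appropriate inhibition level. TGI: concentration producing complete growth inhibition.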

How the values were obtained:
Assay in all cases: growth of human tumour cells (NCI), 48 h
LXFL 529 NSCLC = tested on: LXFL 529 NSCLC
NCI-H226 lung = tested on: NCI-H226 lung
ACHN renal = tested on: ACHN renal
DMS 114 small cell lung = tested on: DMS 114 small cell lung
NCI-H23 lung = tested on: NCI-H23 lung
U251 CNS = tested on: U251 CNS
OVCAR-8 ovarian = tested on: OVCAR-8 ovarian
IGROV1 ovarian = tested on: IGROV1 ovarian
SK-MEL-2 melanoma = tested on: SK-MEL-2 melanoma
LOX IMVI melanoma = tested on: LOX IMVI melanoma
M19-MEL melanoma = tested on: M19-MEL melanoma
SK-MEL-28 melanoma = tested on: SK-MEL-28 melanoma
SW-620 colon = tested on: SW-620 colon
TK-10 renal = tested on: TK-10 renal
SK-OV-3 ovarian = tested on: SK-OV-3 ovarian
A549 NSCLC = tested on: A549 NSCLC
RXF 393 renal = tested on: RXF 393 renal
HCT-15 colon = tested on: HCT-15 colon
EKVX NSCLC = tested on: EKVX NSCLC
MOLT-4 leukemia = tested on: MOLT-4 leukemia
CCRF-CEM leukemia = tested on: CCRF-CEM leukemia
MALME-3M melanoma = tested on: MALME-3M melanoma
SF-295 CNS = tested on: SF-295 CNS
RXF-631 renal = tested on: RXF-631 renal
OVCAR-3 ovarian = tested on: OVCAR-3 ovarian
M14 melanoma = tested on: M14 melanoma
HL-60(TB) leukemia = tested on: HL-60(TB) leukemia
UO-31 renal = tested on: UO-31 renal
KM12 colon = tested on: KM12 colon
A498 renal = tested on: A498 renal
NCI-H522 lung = tested on: NCI-H522 lung
SK-MEL-5 melanoma = tested on: SK-MEL-5 melanoma
HOP-18 NSCLC = tested on: HOP-18 NSCLC
COLO 205 colon = tested on: COLO 205 colon
SNB-75 CNS = tested on: SNB-75 CNS
UACC-62 melanoma = tested on: UACC-62 melanoma
SF-268 CNS = tested on: SF-268 CNS
SNB-78 CNS = tested on: SNB-78 CNS
NCI-H460 lung = tested on: NCI-H460 lung
HCC-2998 colon = tested on: HCC-2998 colon
SN12C renal = tested on: SN12C renal
SNB-19 CNS = tested on: SNB-19 CNS
HOP-62 NSCLC = tested on: HOP-62 NSCLC
RPMI-8226 leukemia = tested on: RPMI-8226 leukemia
SF-539 CNS = tested on: SF-539 CNS
KM20L2 colon = tested on: KM20L2 colon
K-562 leukemia = tested on: K-562 leukemia
OVCAR-5 ovarian = tested on: OVCAR-5 ovarian
UACC-257 melanoma = tested on: UACC-257 melanoma
786-0 renal = tested on: 786-0 renal
DMS 273 small cell lung = tested on: DMS 273 small cell lung
CAKI-1 renal = tested on: CAKI-1 renal
HCT-116 colon = tested on: HCT-116 colon
SR leukemia = tested on: SR leukemia
OVCAR-4 ovarian = tested on: OVCAR-4 ovarian
HT29 colon = tested on: HT29 colon
DLD-1 colon = tested on: DLD-1 colon

`Cc1cc(C(O)CCCc2ccccc2)cc(C)c1O` (stereo not drawn) showed a TGI (LXFL 529 NSCLC) greater than 100 µM, a TGI (NCI-H226 lung) greater than 100 µM and a TGI (ACHN renal) of 92.3 µM. The TGI (DMS 114 small cell lung) was greater than 100 µM, the TGI (NCI-H23 lung) was greater than 100 µM and the TGI (U251 CNS) was greater than 100 µM. For the same molecule, the TGI (OVCAR-8 ovarian) was greater than 100 µM, the TGI (IGROV1 ovarian) was greater than 100 µM and the TGI (SK-MEL-2 melanoma) was 70.3 µM. For the same molecule, the TGI (LOX IMVI melanoma) was greater than 100 µM, the TGI (M19-MEL melanoma) was greater than 100 µM and the TGI (SK-MEL-28 melanoma) was greater than 100 µM. For the same molecule, the TGI (SW-620 colon) was greater than 100 µM, the TGI (TK-10 renal) was greater than 100 µM and the TGI (SK-OV-3 ovarian) was greater than 100 µM. It also gave a TGI (A549 NSCLC) greater than 100 µM, a TGI (RXF 393 renal) of 60 µM and a TGI (HCT-15 colon) greater than 100 µM. It also gave a TGI (EKVX NSCLC) of 75.9 µM, a TGI (MOLT-4 leukemia) of 73.8 µM and a TGI (CCRF-CEM leukemia) greater than 100 µM. For the same molecule, the TGI (MALME-3M melanoma) was 64.3 µM, the TGI (SF-295 CNS) was 93.9 µM and the TGI (RXF-631 renal) was greater than 100 µM. It also gave a TGI (OVCAR-3 ovarian) greater than 100 µM, a TGI (M14 melanoma) greater than 100 µM and a TGI (HL-60(TB) leukemia) of 41.9 µM. The TGI (UO-31 renal) was 60.4 µM, the TGI (KM12 colon) was greater than 100 µM and the TGI (A498 renal) was 81.3 µM. The TGI (NCI-H522 lung) was greater than 100 µM, the TGI (SK-MEL-5 melanoma) was 48.9 µM and the TGI (HOP-18 NSCLC) was greater than 100 µM. For the same molecule, the TGI (COLO 205 colon) was greater than 100 µM, the TGI (SNB-75 CNS) was 78 µM and the TGI (UACC-62 melanoma) was greater than 100 µM. For the same molecule, the TGI (SF-268 CNS) was greater than 100 µM, the TGI (SNB-78 CNS) was greater than 100 µM and the TGI (NCI-H460 lung) was greater than 100 µM. The TGI (HCC-2998 colon) was greater than 100 µM, the TGI (SN12C renal) was greater than 100 µM and the TGI (SNB-19 CNS) was 67.2 µM. The TGI (HOP-62 NSCLC) was greater than 100 µM, the TGI (RPMI-8226 leukemia) was greater than 100 µM and the TGI (SF-539 CNS) was greater than 100 µM. It also gave a TGI (KM20L2 colon) greater than 100 µM, a TGI (K-562 leukemia) greater than 100 µM and a TGI (OVCAR-5 ovarian) greater than 100 µM. The TGI (UACC-257 melanoma) was 95.6 µM and the TGI (786-0 renal) was greater than 100 µM.

With `CC(=O)c1ccc(NC(=O)C(=O)CC(=O)c2sc(-n3nc(-c4ccccc4)cc3-c3ccccc3)nc2C)cc1` the TGI (LXFL 529 NSCLC) was greater than 100 µM, the TGI (NCI-H226 lung) was greater than 100 µM and the TGI (ACHN renal) was greater than 100 µM. It also gave a TGI (DMS 114 small cell lung) greater than 100 µM, a TGI (NCI-H23 lung) greater than 100 µM and a TGI (DMS 273 small cell lung) greater than 100 µM. The TGI (U251 CNS) was greater than 100 µM, the TGI (CAKI-1 renal) was greater than 100 µM and the TGI (OVCAR-8 ovarian) was greater than 100 µM. The TGI (IGROV1 ovarian) was greater than 100 µM, the TGI (HCT-116 colon) was greater than 100 µM and the TGI (SK-MEL-2 melanoma) was greater than 100 µM. The TGI (SR leukemia) was greater than 100 µM, the TGI (LOX IMVI melanoma) was greater than 100 µM and the TGI (M19-MEL melanoma) was greater than 100 µM. It also gave a TGI (SW-620 colon) greater than 100 µM, a TGI (TK-10 renal) greater than 100 µM and a TGI (SK-OV-3 ovarian) greater than 100 µM. It also gave a TGI (OVCAR-4 ovarian) greater than 100 µM, a TGI (A549 NSCLC) greater than 100 µM and a TGI (RXF 393 renal) greater than 100 µM. It also gave a TGI (HT29 colon) greater than 100 µM, a TGI (HCT-15 colon) greater than 100 µM and a TGI (EKVX NSCLC) greater than 100 µM. The TGI (MOLT-4 leukemia) was greater than 100 µM, the TGI (CCRF-CEM leukemia) was greater than 100 µM and the TGI (MALME-3M melanoma) was greater than 100 µM. For the same molecule, the TGI (SF-295 CNS) was greater than 100 µM, the TGI (RXF-631 renal) was greater than 100 µM and the TGI (OVCAR-3 ovarian) was greater than 100 µM. For the same molecule, the TGI (M14 melanoma) was greater than 100 µM, the TGI (HL-60(TB) leukemia) was greater than 100 µM and the TGI (UO-31 renal) was greater than 100 µM. The TGI (KM12 colon) was greater than 100 µM, the TGI (A498 renal) was greater than 100 µM and the TGI (NCI-H522 lung) was greater than 100 µM. The TGI (COLO 205 colon) was greater than 100 µM, the TGI (UACC-62 melanoma) was greater than 100 µM and the TGI (SF-268 CNS) was greater than 100 µM. For the same molecule, the TGI (SNB-78 CNS) was greater than 100 µM, the TGI (NCI-H460 lung) was greater than 100 µM and the TGI (HCC-2998 colon) was greater than 100 µM. It also gave a TGI (SN12C renal) greater than 100 µM, a TGI (SNB-19 CNS) greater than 100 µM and a TGI (DLD-1 colon) greater than 100 µM. For the same molecule, the TGI (HOP-62 NSCLC) was greater than 100 µM, the TGI (RPMI-8226 leukemia) was greater than 100 µM and the TGI (SF-539 CNS) was greater than 100 µM. It also gave a TGI (KM20L2 colon) greater than 100 µM, a TGI (K-562 leukemia) greater than 100 µM and a TGI (OVCAR-5 ovarian) greater than 100 µM. The TGI (UACC-257 melanoma) was greater than 100 µM and the TGI (786-0 renal) was greater than 100 µM.
